Measured values as given in ChEMBL document CHEMBL1146442, “Kawaguchipeptin B, an antibacterial cyclic undecapeptide from the cyanobacterium Microcystis aeruginosa” (1997).
≈ marks a conversion by molar mass, not a printed value. Residues, ends and D or L forms follow the SMILES beside them.

Test system: Staphylococcus aureus
Assay: Antimicrobial activity against Staphylococcus aureus
Assay type: functional

MIC | Compound
1 µg/mL (≈ 0.703 µM) | CC(C)=CC[C@@]12C[C@H]3C(=O)N[C@@H](CO)C(=O)N[C@@H]([C@@H](C)O)C(=O)N4CCC[C@H]4C(=O)N4[C@@H](C[C@@]5(CC=C(C)C)c6ccccc6N[C@@H]45)C(=O)N[C@H](CC(C)C)C(=O)N[C@@H](CC(N)=O)C(=O)NCC(=O)N[C@@H](CC(=O)O)C(=O)N[C@@H](CC(N)=O)C(=O)N[C@@H](CC(N)=O)C(=O)N3[C@H]1Nc1ccccc12 [KAWAGUCHIPEPTIN A]
1 µg/mL (≈ 0.778 µM) | CC(C)C[C@@H]1NC(=O)[C@H](Cc2c[nH]c3ccccc23)NC(=O)[C@@H]2CCCN2C(=O)[C@H]([C@@H](C)O)NC(=O)[C@H](CO)NC(=O)[C@H](Cc2c[nH]c3ccccc23)NC(=O)[C@H](CC(N)=O)NC(=O)[C@H](CC(N)=O)NC(=O)[C@H](CC(=O)O)NC(=O)CNC(=O)[C@H](CC(N)=O)NC1=O [KAWAGUCHIPEPTIN B] (HELM PEPTIDE1{D.N.N.W.S.T.P.W.L.N.G}$PEPTIDE1,PEPTIDE1,1:R1-11:R2$$$V2.0)
